Data reported in US20250034170A1, “SMALL MOLECULE MODULATORS OF GLUCOCEREBROSIDASE ACTIVITY AND USES THEREOF” (Vanqua Bio, Inc., priority 2021, published 2025).

Target: T1, GCase (Homo sapiens, UniProt P04062)
T1 construct: endogenous in cells; host or cells: HeLa cells
T1 sequence (P04062 40-536): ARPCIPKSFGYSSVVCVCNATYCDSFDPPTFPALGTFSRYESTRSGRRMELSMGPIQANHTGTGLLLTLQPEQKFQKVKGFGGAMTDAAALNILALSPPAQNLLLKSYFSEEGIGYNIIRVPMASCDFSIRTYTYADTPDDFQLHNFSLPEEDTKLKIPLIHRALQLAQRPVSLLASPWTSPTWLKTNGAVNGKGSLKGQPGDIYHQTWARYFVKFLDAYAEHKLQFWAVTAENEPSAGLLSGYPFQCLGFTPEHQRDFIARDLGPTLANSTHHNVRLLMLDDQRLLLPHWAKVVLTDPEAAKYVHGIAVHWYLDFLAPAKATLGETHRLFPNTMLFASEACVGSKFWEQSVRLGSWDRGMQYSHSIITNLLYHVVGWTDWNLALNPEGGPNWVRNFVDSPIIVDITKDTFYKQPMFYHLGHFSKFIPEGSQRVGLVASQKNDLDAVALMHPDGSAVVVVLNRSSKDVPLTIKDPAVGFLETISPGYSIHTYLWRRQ
Test: activation of GCase in a live cell PFB assay in HELA cells
Assay type: cell-based
Settings: EC50 given as range classes
Method: Exemplary compounds were evaluated for activation of GCase in a live cell PFB assay in HELA cells (essentially as described in Ysselstein et al., “LRRK2 kinase activity regulates lysosomal glucocerebrosidase in neurons derived from Parkinson's disease patients” Nature Communications (2019) 10:5570). […] EC50 ranges: A: <10 μM; B: >10-50 μM; C: >50-100 μM; D: >100 μM.

Row | EC50 [µM] | SMILES
1 | 10 to 50 | Cn1c(N2CCC3(CCN(c4cnc(C(F)(F)F)nc4)C3)CC2)nc2c(cnn2CC(F)F)c1=O [Cmpd 1015]
2 | < 10 | Cn1c(N2CCC3(CCN(c4cnc(C(F)(F)F)nc4)C3)CC2)nc2c(cnn2CC(F)(F)F)c1=O [Cmpd 1016]
3 | 10 to 50 | Cn1c(N2CCC3(CN(c4ccnc(C(F)(F)F)c4)C3)C2)nc2c(cnn2CC(F)(F)F)c1=O [Cmpd 1017]
4 | 10 to 50 | Cn1c(N2CCC3(CN(c4cnc(C(F)(F)F)nc4)C3)C2)nc2c(cnn2CC(F)(F)F)c1=O [Cmpd 1018]
5 | < 10 | CCn1c(N2CCC3(CC2)CC(=O)N(c2ccnc(C(F)(F)F)c2)C3)nc2c(cnn2CC(F)F)c1=O [Cmpd 1019]
6 | < 10 | Cc1nn(CC(F)F)c2nc(N3CCC4(CC3)CC(=O)N(c3ccnc(C(F)(F)F)c3)C4)n(C)c(=O)c12 [Cmpd 1020]
7 | 10 to 50 | COc1ncc(N2CCC3(CN(c4ccnc(C(F)(F)F)c4)C3)C2)nc1-c1nncs1 [Cmpd 1021]
8 | > 100 | COc1ncc(N2CCC3(CN(c4cnc(C(F)(F)F)nc4)C3)C2)nc1-c1nncs1 [Cmpd 1022]
9 | < 10 | FC(F)(F)c1cc(N2CC3(CCN(c4cncc(-c5nnc(C(F)(F)F)s5)n4)C3)C2)ccn1 [Cmpd 1023]
10 | 50 to 100 | FC(F)(F)c1cc(N2CC3(CCN(c4cncc(-c5nnc(C(F)(F)F)o5)n4)C3)C2)ccn1 [Cmpd 1024]
11 | < 10 | FC(F)(F)c1ncc(N2CC3(CCN(c4cncc(-c5nnc(C(F)(F)F)s5)n4)C3)C2)cn1 [Cmpd 1025]
12 | 50 to 100 | FC(F)(F)c1ncc(N2CC3(CCN(c4cncc(-c5nnc(C(F)(F)F)o5)n4)C3)C2)cn1 [Cmpd 1026]
13 | 10 to 50 | FC(F)(F)c1cc(N2CC3(CCN(c4cncc(-c5nccs5)n4)C3)C2)ccn1 [Cmpd 1027]
14 | 10 to 50 | FC(F)(F)c1cc(N2CC3(CCN(c4cncc(-c5ncc(C(F)(F)F)s5)n4)C3)C2)ccn1 [Cmpd 1028]
15 | < 10 | FC(F)(F)c1cc(N2CC3(CCN(c4cncc(-c5cncs5)n4)C3)C2)ccn1 [Cmpd 1029]
16 | < 10 | CC(C)c1cnc(C(F)(F)F)cc1N1CC2(CCN(c3cnc4cnn(CC(F)F)c4n3)C2)C1 [Cmpd 1030]
17 | < 10 | CCCc1cnc(C(F)(F)F)cc1N1CC2(CCN(c3cnc4cnn(CC(F)F)c4n3)C2)C1 [Cmpd 1031]
18 | < 10 | CCc1cnc(C(F)(F)F)cc1N1CC2(CCN(c3cnc4cnn(CC(F)F)c4n3)C2)C1 [Cmpd 1032]
19 | < 10 | FC(F)(F)CCn1ncc2ncc(N3CCC4(CN(c5ccnc(C(F)(F)F)c5)C4)C3)nc21 [Cmpd 1033]

Same assay, conditions: activation of GCase, EC50 ranges

Row | EC50 [µM] | SMILES
20 | < 10 | FC(F)(F)OCCn1ncc2ncc(N3CCC4(CN(c5ccnc(C(F)(F)F)c5)C4)C3)nc21 [Cmpd 1034]
21 | < 10 | Cc1nc2cnn(CC(F)F)c2nc1N1CCC2(CN(c3ccnc(C(F)(F)F)c3)C2)C1 [Cmpd 1035]
22 | > 100 | Cc1nc2cnn(CC(F)F)c2nc1N1CCC2(CN(c3cnc(C(F)(F)F)nc3)C2)C1 [Cmpd 1036]
23 | < 10 | Cc1ncc(-c2nncs2)nc1N1CCC2(CN(c3ccnc(C(F)(F)F)c3)C2)C1 [Cmpd 1037]
24 | 10 to 50 | Cc1ncc(-c2nncs2)nc1N1CCC2(CN(c3cnc(C(F)(F)F)nc3)C2)C1 [Cmpd 1038]
25 | 10 to 50 | Cc1cnc(N2CC3(CCN(c4cnc5cnn(CC(F)F)c5n4)C3)C2)cn1 [Cmpd 1039]
26 | 10 to 50 | Cc1cc(N2CC3(CCN(c4cnc5cnn(C6COC6)c5n4)C3)C2)cc(C(F)(F)F)n1 [Cmpd 1040]
27 | > 100 | Cc1c(N2CC3(CCN(c4cnc5cnn(C6COC6)c5n4)C3)C2)ccnc1C(F)(F)F [Cmpd 1041]
28 | > 100 | Cc1cnc(C(F)(F)F)cc1N1CC2(CCN(c3cnc4cnn(C5COC5)c4n3)C2)C1 [Cmpd 1042]
29 | < 10 | CCn1c(-c2ccccc2)nc2ncc(N3CCC4(CN(c5ccnc(C(F)(F)F)c5)C4)C3)nc21 [Cmpd 1043]
30 | < 10 | CCn1c(-c2cncc(F)c2)nc2ncc(N3CCC4(CN(c5ccnc(C(F)(F)F)c5)C4)C3)nc21 [Cmpd 1044]
31 | 50 to 100 | CCn1c(-c2cncc(F)c2)nc2nc(N3CCC4(CN(c5ccnc(C(F)(F)F)c5)C4)C3)cnc21 [Cmpd 1045]
